Data from the supplement of paper PMC4862054.

Experiments:
Conditions in all cases: 72 h
[1] = system: MCF-10A
In short: (§1)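 Breast cancer cell lines in 20 µl suspension were added to 384-well plates already holding compound at 5 concentrations, spaced in 10-fold steps across a compound-specific 10,000-fold range, and incubated for 72 h. CellTox Green fluorescence (485/520 nm) was read first to measure cell death, followed by CellTiter-Glo luminescence for viability after 10 min at room temperature. Each plate was normalised to 0.1 % DMSO and a positive kill control. EC50 values came from dose-response curve fits and were censored at the top concentration.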

[2] = system: Hs578T
In short: as §1

[3] = system: CAL-120
In short: as §1

[4] = system: SK-BR-3
In short: as §1

[5] = system: MFM-223
In short: as §1

[6] = system: CAL-51
In short: as §1

[7] = system: CAL-148
Experimental: (§2)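 Drug sensitivity and resistance testing (DSRT) of breast cancer cell lines in 384-well plates, 5 concentrations in 10-fold dilutions over a compound-specific 10,000-fold range. After 72 h, cytotoxicity was read by CellTox Green fluorescence and viability by CellTiter-Glo luminescence (multiplexed), normalised to DMSO and benzethonium chloride controls. EC50 is the inflection point of the fitted dose-response curve (bottom asymptote free, so it can be relative for partial curves) and is censored at the highest tested concentration. Rows with DSS 0 (no meaningful response) were excluded.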

[8] = system: CAL-51; remark: listed apart in the source
Experimental: as §2

[9] = system: HCC1599
In short: as §1

[10] = system: HCC1143
In short: as §1

[11] = system: CAL-148; remark: listed apart in the source
In short: as §1

[12] = system: HCC1937
In short: as §1

[13] = system: MDA-MB-436
In short: as §1

[14] = system: DU-4475
In short: as §1

[15] = system: BT-549
In short: as §1

[16] = system: HCC1143; remark: listed apart in the source
In short: (§3)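 Breast cancer cell lines in 20 µl suspension were seeded onto 384-well plates that already held compound dissolved in 5 µl medium and were incubated for 72 h. Viability was measured by adding 2.5 µl CellTiter-Blue for 2 h at 37 °C and reading fluorescence at 560/590 nm. Each plate was normalised to vehicle and a positive kill control and checked by Z'-factor. EC50 was taken from a fitted percent-inhibition dose-response curve, censored at the highest concentration, and rows with a drug sensitivity score of zero were removed.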

[17] = system: Hs578T; remark: listed apart in the source
In short: as §3

[18] = system: CAL-120; remark: listed apart in the source
In short: as §3

[19] = system: MDA-MB-231
In short: as §3

[20] = system: MDA-MB-453
In short: as §3

[21] = system: CAL-51; remark: listed apart in the source
In short: as §3

[22] = system: MDA-MB-231; remark: listed apart in the source
Experimental: as §2

[23] = system: DU-4475; remark: listed apart in the source
Experimental: as §2

[24] = system: HDQ-P1
Experimental: as §2

[25] = system: MDA-MB-468
Experimental: as §2

[26] = system: HCC1599; remark: listed apart in the source
In short: as §3

[27] = system: HCC1937; remark: listed apart in the source
In short: as §3

[28] = system: MDA-MB-231; remark: listed apart in the source
In short: as §1

[29] = system: DU-4475; remark: listed apart in the source
In short: as §3

[30] = system: CAL-85-1
In short: as §3

[31] = system: HDQ-P1; remark: listed apart in the source
In short: as §3

[32] = system: MCF-10A; remark: listed apart in the source
Experimental: as §2

[33] = system: HCC1143; remark: listed apart in the source
Experimental: as §2

[34] = system: Hs578T; remark: listed apart in the source
Experimental: as §2

[35] = system: HCC1937; remark: listed apart in the source
Experimental: as §2

[36] = system: CAL-85-1; remark: listed apart in the source
Experimental: as §2

[37] = system: BT-549; remark: listed apart in the source
Experimental: as §2

[38] = system: MFM-223; remark: listed apart in the source
Experimental: as §2

[39] = system: BT-474
Experimental: as §2

[40] = system: MDA-MB-436; remark: listed apart in the source
In short: as §3

[41] = system: SK-BR-3; remark: listed apart in the source
In short: as §3

[42] = system: BT-549; remark: listed apart in the source
In short: as §3

[43] = system: MFM-223; remark: listed apart in the source
In short: as §3

[44] = system: BT-474; remark: listed apart in the source
In short: as §3

[45] = system: MDA-MB-468; remark: listed apart in the source
In short: as §3

[46] = system: MDA-MB-453; remark: listed apart in the source
In short: as §1

[47] = system: CAL-85-1; remark: listed apart in the source
In short: as §1

[48] = system: CAL-148; remark: listed apart in the source
In short: as §3

With CC(=O)c1c(C)c2cnc(Nc3ccc(N4CCNCC4)cn3)nc2n(C2CCCC2)c1=O [Palbociclib] as the molecule, how does the “EC50, CellTiter-Glo” value [1] read?
Its value is 1020 nM.

And the “EC50, CellTiter-Glo” value [2]?
The value was over 10000 nM.

And the “EC50, CellTiter-Glo” value [3]?
Its value is 409 nM.

And the “EC50, CellTiter-Glo” value [4]?
The value was 2240 nM.

What about the “EC50, CellTiter-Glo” value [5] of the same molecule?
The value was 86.9 nM.

What about the “EC50, CellTiter-Glo” value [6] of the same molecule?
Its value is over 10000 nM.

How did the “EC50, CellTox Green” value [7] turn out when CC(=O)N(O)CCCCCNC(=O)CCC(=O)N(O)CCCCCNC(=O)CCC(=O)N(O)CCCCCN [Deferoxamine] was run?
The value was 221 nM.

What about the “EC50, CellTox Green” value [8] of the same molecule?
Its value is 1900 nM.

And the “EC50, CellTiter-Glo” value [9]?
Its value is 3970 nM.

What about the “EC50, CellTiter-Glo” value [10] of the same molecule?
The value was 832 nM.

What about the “EC50, CellTiter-Glo” value [11] of the same molecule?
Its value is 1920 nM.

And the “EC50, CellTiter-Glo” value [2]?
Its value is 2660 nM.

What about the “EC50, CellTiter-Glo” value [12] of the same molecule?
The value was 696 nM.

What about the “EC50, CellTiter-Glo” value [13] of the same molecule?
Its value is 1570 nM.

And the “EC50, CellTiter-Glo” value [14]?
The value was 3480 nM.

And the “EC50, CellTiter-Glo” value [4]?
The value was 6450 nM.

And the “EC50, CellTiter-Glo” value [15]?
Its value is 852 nM.

And the “EC50, CellTiter-Glo” value [6]?
Its value is 6360 nM.

Which results are given for CC(=O)c1c(C)c2cnc(Nc3ccc(N4CCNCC4)cn3)nc2n(C2CCCC2)c1=O?
EC50, CellTiter-Blue viability [16]: 9920 nM; EC50, CellTiter-Blue viability [17]: 7700 nM; EC50, CellTiter-Blue viability [18]: 12.8 nM; EC50, CellTiter-Blue viability [19]: 460 nM; EC50, CellTiter-Blue viability [20]: 102 nM; EC50, CellTiter-Blue viability [21]: 1170 nM

Which results are given for Cn1cnc2c(F)c(Nc3ccc(Br)cc3Cl)c(C(=O)NOCCO)cc21 [Selumetinib]?
EC50, CellTox Green [22]: 724 nM; EC50, CellTox Green [23]: 172 nM; EC50, CellTox Green [24]: 324 nM; EC50, CellTox Green [25]: 2460 nM; EC50, CellTiter-Blue viability [26]: 283 nM; EC50, CellTiter-Blue viability [16]: 23 nM; EC50, CellTiter-Blue viability [17]: > 10000 nM; EC50, CellTiter-Blue viability [27]: 1070 nM; EC50, CellTiter-Blue viability [18]: 7500 nM; EC50, CellTiter-Blue viability [19]: 214 nM; EC50, CellTiter-Glo [1]: 20.4 nM; EC50, CellTiter-Glo [9]: 1670 nM; EC50, CellTiter-Glo [3]: 9280 nM; EC50, CellTiter-Glo [28]: 313 nM; EC50, CellTiter-Glo [14]: 210 nM; EC50, CellTiter-Blue viability [29]: 70.8 nM; EC50, CellTiter-Blue viability [30]: 563 nM; EC50, CellTiter-Blue viability [31]: 159 nM

Which “EC50, CellTiter-Blue viability” value [20] does the source give for CC[C@@H]1C(=O)OC[C@@H]1Cc1cncn1C [Pilocarpine] here?
Its value is 38300 nM.

Which results are given for CC(=O)O[C@@]12CO[C@@H]1C[C@H](O)[C@@]1(C)C(=O)[C@H](O)C3=C(C)[C@@H](OC(=O)[C@H](O)[C@@H](NC(=O)OC(C)(C)C)c4ccccc4)C[C@@](O)([C@@H](OC(=O)c4ccccc4)[C@H]21)C3(C)C [Docetaxel]?
EC50, CellTox Green [32]: 3.14 nM; EC50, CellTox Green [33]: 108 nM; EC50, CellTox Green [34]: 4.24 nM; EC50, CellTox Green [35]: 946 nM; EC50, CellTox Green [22]: 1.94 nM; EC50, CellTox Green [36]: 1.87 nM; EC50, CellTox Green [37]: 57.8 nM; EC50, CellTox Green [24]: 123 nM; EC50, CellTox Green [38]: 12.2 nM; EC50, CellTox Green [8]: 1.63 nM; EC50, CellTox Green [39]: 5.12 nM; EC50, CellTiter-Blue viability [16]: 1.71 nM; EC50, CellTiter-Blue viability [17]: 1.36 nM; EC50, CellTiter-Blue viability [27]: 1.02 nM; EC50, CellTiter-Blue viability [40]: 2.53 nM; EC50, CellTiter-Blue viability [18]: 2.27 nM; EC50, CellTiter-Blue viability [19]: 2.39 nM; EC50, CellTiter-Blue viability [41]: 1.9 nM; EC50, CellTiter-Blue viability [42]: 1.03 nM; EC50, CellTiter-Blue viability [43]: 2.57 nM; EC50, CellTiter-Blue viability [44]: 6.71 nM; EC50, CellTiter-Blue viability [45]: 0.808 nM; EC50, CellTiter-Glo [46]: 7.15 nM; EC50, CellTiter-Glo [1]: 1.04 nM; EC50, CellTiter-Glo [9]: 12.2 nM; EC50, CellTiter-Glo [10]: 1.17 nM; EC50, CellTiter-Glo [11]: 1.52 nM; EC50, CellTiter-Glo [2]: 2.47 nM; EC50, CellTiter-Glo [12]: 0.69 nM; EC50, CellTiter-Glo [13]: 2.14 nM; EC50, CellTiter-Glo [3]: 3.3 nM; EC50, CellTiter-Glo [28]: 5.5 nM; EC50, CellTiter-Glo [14]: 8.31 nM; EC50, CellTiter-Glo [47]: 1.46 nM; EC50, CellTiter-Glo [4]: 1.37 nM; EC50, CellTiter-Glo [15]: 1.03 nM; EC50, CellTiter-Glo [5]: 3.29 nM; EC50, CellTiter-Glo [6]: 5.86 nM; EC50, CellTiter-Blue viability [20]: 2.02 nM; EC50, CellTiter-Blue viability [48]: 1.85 nM; EC50, CellTiter-Blue viability [29]: 2.52 nM; EC50, CellTiter-Blue viability [30]: 2.27 nM; EC50, CellTiter-Blue viability [31]: 1.39 nM; EC50, CellTiter-Blue viability [21]: 4.62 nM
